Where a name gives a salt, the structure may show the parent alone. Read-outs that look alike come from different tables or passages of the source.
Tested on: murine neural precursor cells (neurosphere cultures)
Assay: HTS of LOPAC library against secondary neurosphere cultures, MTT proliferation assay at 3 μM, day 7 (z score, P value)
Assay type: cell-based, mouse
[1] = LOPAC primary screen, neurosphere MTT proliferation, 3 μM, day 7
[2] = LOPAC library screen at 3 μM, secondary neurosphere cultures, MTT
[3] = yes/no: significantly inhibited neurosphere proliferation in primary screen
[4] = primary LOPAC screen, 3 μM, MTT, neurosphere proliferation
[5] = yes/no: significantly inhibited neurosphere proliferation in the primary screen
[6] = LOPAC screen, neurosphere MTT proliferation, 3 μM, day 7
[7] = yes/no: significantly inhibited neurosphere proliferation (P<0.01) in primary screen
[8] = LOPAC library screen, 3 μM, MTT, neurosphere cultures
[9] = LOPAC library screen, 3 μM, MTT, secondary neurosphere cultures, day 7
[10] = yes = significantly inhibited neurosphere proliferation (P<0.01) in the primary screen
[11] = yes/no: significantly inhibited neurosphere proliferation (P<0.01) in the primary screen

CC(=O)O.O=C(NCC1CCCCN1)c1cc(OCC(F)(F)F)ccc1OCC(F)(F)F (stereo not drawn) [Flecainide acelate]
Activity: no | Z score [1]: −1.498

C[C@]12CCC(=O)C=C1CC[C@@H]1[C@@H]2CC[C@@]2(C)[C@H]1CC[C@]2(O)C(=O)CO [Cortexolone]
Z Score [2]: −0.6087 | Z score [1]: −0.609 | Activity [3]: no

COc1cc2c(cc1OC)-c1c/c(=N\c3c(C)cc(C)cc3C)n(C)c(=O)n1CC2 [Trequinsin hydrochloride]
Z Score [2]: −0.9709 | Z score [4]: −0.971 | Activity [5]: no

Cl.NCC(O)C1CCCCCCC1 (stereo not drawn)
Z score [6]: −0.575 | Activity [7]: no

N.N.N.Nc1ncnc2c1ncn2C1OC(COP(=O)(O)OP(=O)(O)OP(=O)(O)OP(=O)(O)OC[C@H]2O[C@@H](n3cnc4c(N)ncnc43)C(O)C2O)[C@@H](O)C1O (stereo in doubt)
Z Score [2]: −0.2867 | Z score [6]: −0.287 | Activity [7]: no

CCCNC(=O)NS(=O)(=O)c1ccc(Cl)cc1 [Chlorpropamide]
Z Score [2]: −0.1901 | Z score [4]: −0.190 | Activity [5]: no

Cl.c1ccc2nc(C3=NCCN3)ccc2c1 [BU224 hydrochloride]
Z Score: 0.4045 | Z score [6]: 0.404 | Activity [7]: no

O=P(O)(O)C(Cl)(Cl)P(=O)(O)O [Clodronic acid]
Z Score [2]: −0.1842 | Z score [6]: −0.184 | Activity [7]: no

Cl.NCC(O)c1cc(O)c(O)cc1F (stereo not drawn) [6-Fluoronorepinephrine hydrochloride]
Z Score: −1.168 | Z score [6]: −1.168 | Activity [7]: no

COc1cc(CC(C)N)c(OC)cc1I.Cl (stereo not drawn) [(B1)-DOI hydrochloride]
Z Score: −1.345

(+)-Catechin Hydrate
Z Score [8]: 0.5105 | Z score [4]: 0.511 | Activity [5]: no

CCn1c(=O)c2[nH]c(-c3ccccc3)nc2n(CC)c1=O [1,3-Diethyl-8-phenylxanthine]
Z Score (168 h, 3 µM): 2.005 | Z score (168 h, 3 µM): 2.005 | Activity [5]: no

C[C@]12CCC(=O)C=C1CC[C@@H]1[C@@H]2C(=O)C[C@@]2(C)[C@H]1CC[C@]2(O)C(=O)CO [Cortisone]
Z Score [2]: −0.5807 | Z score [4]: −0.581 | Activity [5]: no

Oc1ccc(Cn2ccnc2S)cc1 [1-(4-Hydroxybenzyl)imidazole-2-thiol]
Z Score (168 h, 3 µM): 0.7628 | Z score (168 h, 3 µM): 0.763 | Activity [7]: no

R(−)-Isoproterenol (+)-bitartrate
Z Score [9]: −1.485 | Z score [1]: −1.485 | Activity [7]: no

CN1CC[C@]2(CCN3CCc4c(oc5ccccc45)[C@@H]3C2)N(C)C1=O.Cl [MK-912]
Z Score: −0.582 | Z score [1]: −0.582 | Activity [10]: no

COC(=O)c1c(-c2cc(OC)c(OC)c(OC)c2)c2ccnc(OCc3ncccn3)c2c(=O)n1Cc1ccnc(C)c1 [T-0156]
Z Score: 0.07709 | Z score [4]: 0.077 | Activity [5]: no

CCCc1c(OCCCOc2ccc(OCC(=O)O)cc2)ccc(C(C)=O)c1O [L-165,041]
Z Score: 0.3062 | Z score [1]: 0.306 | Activity [7]: no

NS(=O)(=O)c1cccc2c1c([N+](=O)[O-])cc1nc([O-])c([O-])nc12.[Na+].[Na+] [NBQX disodium]
Z Score [9]: −1.675 | Z score [1]: −1.675 | Activity [3]: no

Cl.NC1(C(=O)O)CCCCC1 [1-Amino-1-cyclohexanecarboxylic acid hydrochloride]
Z Score (168 h, 3 µM): −0.7495 | Z score (168 h, 3 µM): −0.749 | Activity [5]: no

Brc1c(NC2=NCCN2)ccc2nccnc12 [UK 14,304]
Activity: no | Z Score: −0.2103 | Z score: −0.210

CN1CCN(CC(=O)N2c3ccccc3C(=O)Nc3cccnc32)CC1.Cl.Cl [Pireuzepine dihydrochloride]
Z Score: −0.545

C1COC(NC(C2CC2)C2CC2)=N1 [Rilmenidine hemifumarate]
Z Score [8]: 0.5264 | Z score [1]: 0.526 | Activity [3]: no

CC(=O)N1CCN(c2ccc(OCC3COC(Cn4ccnc4)(c4ccc(Cl)cc4Cl)O3)cc2)CC1 (stereo not drawn) [Ketoconazole]
Activity: no | Z Score (168 h, 3 µM): 0.586 | Z score (168 h, 3 µM): 0.586

[Cl-].[Li+] [Lithium Chloride]
Z Score: −0.9113 | Z score [1]: −0.911 | Activity [7]: no

Cc1ccc(S(=O)(=O)NC(=O)NN2CCCCCC2)cc1 [Tolazamide]
Z Score [8]: 1.431 | Z score [4]: 1.431 | Activity [5]: no

C[C@]12CC[C@@H](O)C[C@@H]1CC[C@@H]1[C@@H]2CC[C@]2(C)C(=O)CC[C@@H]12 [Androsterone]
Activity: no | Z Score: 1.947 | Z score: 1.947

CC(C)Cc1ccc(C(C)C(=O)O)cc1 (stereo not drawn) [(B1)-Ibuprofen]
Z Score: −0.2623

CC1(C)CCC2=C(O1)c1ccccc1C(=O)C2=O [beta-Lapachone]
Z Score (168 h, 3 µM): −10.43 | Z score (168 h, 3 µM): −10.428 | Activity [10]: yes

CCCn1c(=O)c2[nH]c(-c3ccc(OCC(=O)Nc4ccc(C#N)cc4)cc3)nc2n(CCC)c1=O [MRS 1754]
Z Score: 0.9268 | Z score [1]: 0.927 | Activity [10]: no

Quipazine dimaleate
Z Score: −1.444 | Z score [1]: −1.444 | Activity [3]: no

CC(C)CN(C)c1nc(N)c(C(=O)N=C(N)N)nc1Cl [5-(N-Methyl-N-isobutyl)amiloride]
Z Score (LOPAC library screen at 3 μM, MTT, secondary neurosphere cultures, screened in singlets): 1.871 | Z score [4]: 1.871 | Activity [5]: no

O=C(O)CCC/C=C\C[C@@H]1[C@@H](/C=C/[C@H](O)C2Cc3ccccc3C2)[C@@H](F)C[C@@H]1O [AL-8810]
Z Score: −1.806 | Z score [4]: −1.806 | Activity [5]: no

N#CC(C#N)=C(N)/C(C#N)=C/c1cc(O)c(O)c(O)c1 [Tyrphostin 51]
Z Score: −0.9177 | Z score [4]: −0.918 | Activity [5]: no

CC[C@H]1CN2CCc3cc(OC)c(OC)cc3[C@@H]2C[C@@H]1C[C@H]1NCCc2cc(OC)c(OC)cc21 [Emetine dihydrochloride hydrate]
Activity: yes | Z Score [9]: −10.63 | Z score [1]: −10.633

NSC 95397
Z Score: −1.098 | Z score [1]: −1.098 | Activity [11]: no

NC(=O)N1c2ccccc2C=Cc2ccccc21 [Carbamazepine]
Z Score [8]: 1.114 | Z score [6]: 1.114 | Activity [7]: no

CCOC(=O)C1=C(C)NC(C)=C(C(=O)OC)C1c1cccc([N+](=O)[O-])c1 (stereo not drawn) [Nitrendipine]
Z Score [9]: −1.61 | Z score [1]: −1.610

O=C(CCc1ccc(O)cc1)c1c(O)cc(O)cc1O [Phloretin]
Z Score (168 h, 3 µM): 0.9165 | Z score (168 h, 3 µM): 0.916

C[N+]1(C)CCOC(O)(c2ccc(-c3ccc(C4(O)C[N+](C)(C)CCO4)cc3)cc2)C1.[Br-].[Br-] (stereo not drawn) [Hemicholinium-3]
Z Score: 0.7871 | Z score [1]: 0.787 | Activity [7]: no

CC(C)C[C@H]1C(=O)N2CCC[C@H]2[C@]2(O)O[C@](NC(=O)[C@@H]3C=C4c5cccc6[nH]c(Br)c(c56)C[C@H]4N(C)C3)(C(C)C)C(=O)N12.CS(=O)(=O)O [(+)-Bromocriptine methanesulfonate]
Z Score: 0.02792 | Z score [4]: 0.028 | Activity [5]: no

CC(N)=NCc1cccc(CN)c1.Cl.Cl [1400W dihydrochloride]
Z Score: −0.2749 | Z score [4]: −0.275 | Activity [5]: no

Cl.Cl.Cn1cnc(CCN)c1 [1-Methylbistamine dihydrochloride]
Z Score: 0.3068

COC(=O)[C@H](NC(=O)c1cc(-c2ccccc2)nc2ccccc12)c1ccccc1 [SB 218795]
Z Score: 1.359 | Z score [1]: 1.359 | Activity [7]: no

Nc1ncnc2c1ncn2[C@@H]1O[C@H](C(=O)NC2CC2)[C@@H](O)[C@H]1O [5′-(N-Cyclopropyl)carboxamidoadenosine]
Z Score: −1.701 | Z score [6]: −1.701 | Activity [7]: no

NC(=O)c1ccccc1 [Beuzamide]
Z Score: 0.5498

CN1[C@@H]2CC[C@H]1C[C@@H](OC(=O)C(CO)c1ccccc1)C2 (stereo partly drawn) [Atropine sulfate]
Activity: no | Z Score: 1.244 | Z score: 1.244

COc1cc(OC)cc(C(CNc2ncnc3c2ncn3[C@@H]2O[C@H](CO)[C@@H](O)[C@H]2O)c2ccccc2C)c1 (stereo partly drawn) [DPMA]
Z Score: 0.03628 | Z score [6]: 0.036 | Activity [7]: no

N[C@@H](Cc1ccc(F)cc1)C(=O)O [p-Fluoro-L-phenylalanine]
Z Score (168 h, 3 µM): −0.7023 | Z score (168 h, 3 µM): −0.702 | Activity [7]: no

CCCN1CCC[C@@H]2Cc3nc(N)ncc3C[C@H]21 [Quinelorane dihydrochloride]
Z score [1]: −1.567 | Activity [3]: no

COc1ccc2[nH]cc(CCN)c2c1.Cl [O-Methylserotonin hydrochloride]
Z Score: −0.172 | Z score [1]: −0.172 | Activity [10]: no

Cl.NCC#Cc1ccccc1 [3-Phenylpropargylamine hydrochloride]
Z Score: −2.043 | Z score [1]: −2.043 | Activity [3]: no

NCCCP(=O)(O)O [3-Aminopropylphosphonic acid]
Z Score: −2.331 | Z score [1]: −2.331 | Activity [11]: yes

NN=C(N)N.NN=C(N)N.O=S(=O)(O)O [Aminoguanidine hemisulfate]
Activity: no | Z Score: −1.219 | Z score: −1.219

Cn1ccnc1 [1-Methylimidazole]
Z Score (168 h, 3 µM): −0.8469 | Z score (168 h, 3 µM): −0.847 | Activity [10]: no

Reference: US8058243B2, “Method for treating a brain cancer with ifenprodil” (HSC Research and Development Limited Partnership, priority 2006, dated 2011)
